{"source": "patent US9528992B2", "about": "“Methods and kits for detection of active malignancy” (priority 2012, dated 2016)", "key": {"[1]": {"molecular_target": "T1, serum albumin (Homo sapiens, UniProt P02768)", "T1 construct": "from tissue; host or cells: blood serum of patients (whole blood centrifugation)", "T1 sequence (P02768 25-609)": "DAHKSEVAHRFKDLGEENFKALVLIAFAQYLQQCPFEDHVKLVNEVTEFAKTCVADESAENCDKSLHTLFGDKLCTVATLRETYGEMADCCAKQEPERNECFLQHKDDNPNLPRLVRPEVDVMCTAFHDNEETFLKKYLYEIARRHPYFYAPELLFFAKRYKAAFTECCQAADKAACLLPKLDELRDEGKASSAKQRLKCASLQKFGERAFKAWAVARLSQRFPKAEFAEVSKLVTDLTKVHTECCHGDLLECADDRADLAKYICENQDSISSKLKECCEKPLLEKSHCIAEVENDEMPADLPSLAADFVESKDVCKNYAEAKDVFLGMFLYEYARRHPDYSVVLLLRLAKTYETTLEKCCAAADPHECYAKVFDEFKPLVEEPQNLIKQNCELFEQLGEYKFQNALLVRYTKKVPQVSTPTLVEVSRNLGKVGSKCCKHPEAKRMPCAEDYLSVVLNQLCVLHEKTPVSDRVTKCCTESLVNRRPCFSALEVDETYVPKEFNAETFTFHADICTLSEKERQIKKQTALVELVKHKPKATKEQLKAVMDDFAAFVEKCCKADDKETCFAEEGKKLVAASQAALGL", "assay": "EPR spectroscopy of spin probe binding to primary and secondary binding sites of serum albumin in patient serum", "source_text": "At the condition of binding equilibrium in the mixture of sample aliquot, probe, and solvent, the binding efficiencies (BE1 and BE2) of specific (primary) and non-specific (secondary) hydrophobic binding sites of serum albumin can be calculated using the concentrations of the probe bound on the primary site of albumin (B1), on the secondary albumin site (B2) and unbound probe concentration (F), and solvent concentration (S) in the mixture. For example, can be calculated with either: 1/BE1=1/(Kb1·N1)=(Sc/S−1)·(F/B1)·P·(1−B1/(P·N1)) (2) 1/BE2=1/(Kb2·N2)=(Sc/S−1)·(F/B2)·P·(1−B2/(P·N2)) (3) where Sc=0.27 volume percent is the critical concentration of the solvent (as described above), P is the concentration of serum albumin in the sample, N1 is the number of specific or primary binding sites for the probe on the serum albumin molecule, N2 is the number of non-specific or secondary binding sites for the probe between the albumin on the serum albumin molecule. Generally, where the probe is a long chain fatty acid, N1=7 and N2 is from 6 to 8 for purified albumin. For native serum albumin of a healthy person N1 is from 4 to 7, and N2 is from 3 to 7. In native serum samples, typically the relative concentration of the spin probe bound on primary site, parameter B1/P, is about 0.5; and parameter B2/P is about 0.4. Therefore, the binding efficiencies BE1 and BE2 can be calculated (within about 10%) using the approximate formulas: 1/BE1=(Sc/S−1)·(F/B1)·P (2a) 1/BE2=(Sc/S−1)·(F/B2)·P (3a)\nIn Table 2, B1 and B2 are relative concentrations of the probe bound on primary and secondary sites of albumin, F is the relative concentration of unbound probe, B1/F and B2/F are parameters representing the binding efficiency of the primary and secondary binding sites of albumin, DP is discriminating parameter designed by square discriminant analysis using a set of probe binding parameters.\nBlood serum was obtained by whole blood centrifugation. An aliquot of 50 μl of serum from each patient was used for each test. A spin probe of 2-(14-carboxytetradecyl)-2-ethyl-4,4-dimethyl-3-oxazolidinyloxy (purchased from Fluorochem Ltd., Derbyshire, UK) was mixed into the aliquot at a concentration of 1.64 mmol/l. A solvent, 14 μl of ethanol, was mixed into the aliquot. The molar ratio of the probe to serum albumin in the aliquot was 3.5, based on an albumin concentration in the serum of 4 g/dL. The mixture was then incubated for 10 min at 37° C. with continuous agitation in a standard shaker operated at about 5-8 Hz.\nAfter incubation, the probe was placed into a glass capillary (e.g., Model No. RM-40, available from KABE LABORTECHNIK GmbH, Numbrecht-Elsenroth, Germany).\nThe EPR spectrum of the mixture was then measured, as described below. The above-described capillary was placed into the resonator of an EPR spectrometer for spectroscopic analysis. The spectroscopy parameters were as follows: microwave power 15 mW at frequency 9.52 GHz; magnetic field 0.34 T (3400 G) with scan range 12 mT (120 G); modulation amplitude 0.2 mT (2 G); data accumulation by three scans each with 4096 measured points and a sweep time 60 s. The capillary temperature was 37° C., and was controlled within +/−0.2° C.\nThe EPR spectrum was analyzed by computer using an EPR-spectrum simulation with nonlinear least-squares fits. The spectrum model included five components. The first two are the B and C components which represent portions of the probe that were bound differently on serum albumin. As shown here, the B and C components primarily differed by spectral parameters of A tensors (hyperfine splitting tensor): A∥(B)=30.02 Oe, A⊥(B)=9.02 Oe, A∥(C)=21.5 Oe, and A⊥(C)=13.35 Oe. Parameters of the g tensor used in the spectral calculations of these two components were: g∥(B)=1.9983, g⊥(B)=2.0019, g∥(C)=1.9990, and g⊥(C)=2.0013. The third D component represented the unbound spin probe residing free in the sample. The parameters of the D component were: A∥(D)=A⊥(D)=15.6 Oe, and g∥(D)=g⊥(D)=2.0008. […]"}, "[2]": {"molecular_target": "albumin (Homo sapiens, UniProt P02768)", "sequence (P02768 25-609, species assumed)": "as the sequence (P02768 25-609) above", "conditions": "affinity of albumin for unlabeled stearic acid; cited from earlier work"}, "[3]": {"conditions": "cancer-free persons, Mean, serum albumin 0.47 mmol, spin probe 1.64 mmol, ethanol 0.22 volume percent"}, "[4]": {"conditions": "patients with active malignancies, Max"}, "[5]": {"conditions": "patients with active malignancies, Mean"}, "[6]": {"conditions": "patients with active malignancies, Mean, serum albumin 0.47 mmol, spin probe 1.64 mmol, ethanol 0.22 volume percent"}, "[7]": {"conditions": "patients with active malignancies, Min"}}, "data": [{"smiles": "CCC1(CCCCCCCCCCCCCCC(=O)O)OCC(C)(C)N1[O]", "note": "(stereo not shown) [16-doxyl stearic acid, 2-(14-carboxytetradecyl)-2-ethyl-4,4-dimethyl-3-oxazolidinyloxy]", "values": [{"measurement": "B1, relative concentration of probe bound on primary sites of albumin", "setting": "[1]; cancer-free persons, Max", "value": 0.60}, {"measurement": "B1/F, binding efficiency of primary binding sites of albumin", "setting": "[1]; cancer-free persons, Max", "value": 54.4}, {"measurement": "B2, relative concentration of probe bound on secondary sites of albumin", "setting": "[1]; cancer-free persons, Max", "value": 0.45}, {"measurement": "B2/F, binding efficiency of secondary binding sites of albumin", "setting": "[1]; cancer-free persons, Max", "value": 37.5}, {"measurement": "DP, discriminating parameter", "setting": "[1]; cancer-free persons, Max", "value": "−0.3"}, {"measurement": "F, relative concentration of unbound probe", "setting": "[1]; cancer-free persons, Max", "value": 0.044}, {"measurement": "B1/F, binding efficiency of primary binding sites of albumin", "setting": "[1]; cancer-free persons, Mean", "value": 21.8}, {"measurement": "B2/F, binding efficiency of secondary binding sites of albumin", "setting": "[1]; cancer-free persons, Mean", "value": 15.8}, {"measurement": "DP, discriminating parameter", "setting": "[1]; cancer-free persons, Mean", "value": "−3.3"}, {"measurement": "B1, relative concentration of probe bound on primary sites of albumin", "setting": "[1]; [3]", "value": 0.52}, {"measurement": "B2, relative concentration of probe bound on secondary sites of albumin", "setting": "[1]; [3]", "value": 0.38}, {"measurement": "F, relative concentration of unbound probe", "setting": "[1]; [3]", "value": 0.026}, {"measurement": "B1, relative concentration of probe bound on primary sites of albumin", "setting": "[1]; cancer-free persons, Min", "value": 0.40}, {"measurement": "B1/F, binding efficiency of primary binding sites of albumin", "setting": "[1]; cancer-free persons, Min", "value": 10.4}, {"measurement": "B2, relative concentration of probe bound on secondary sites of albumin", "setting": "[1]; cancer-free persons, Min", "value": 0.34}, {"measurement": "B2/F, binding efficiency of secondary binding sites of albumin", "setting": "[1]; cancer-free persons, Min", "value": 8.5}, {"measurement": "DP, discriminating parameter", "setting": "[1]; cancer-free persons, Min", "value": "−5.2"}, {"measurement": "F, relative concentration of unbound probe", "setting": "[1]; cancer-free persons, Min", "value": 0.010}, {"measurement": "B1, relative concentration of probe bound on primary sites of albumin", "setting": "[1]; [4]", "value": 0.54}, {"measurement": "B1/F, binding efficiency of primary binding sites of albumin", "setting": "[1]; [4]", "value": 11.4}, {"measurement": "B2, relative concentration of probe bound on secondary sites of albumin", "setting": "[1]; [4]", "value": 0.38}, {"measurement": "B2/F, binding efficiency of secondary binding sites of albumin", "setting": "[1]; [4]", "value": 6.5}, {"measurement": "DP, discriminating parameter", "setting": "[1]; [4]", "value": 66.0}, {"measurement": "F, relative concentration of unbound probe", "setting": "[1]; [4]", "value": 0.155}, {"measurement": "B1/F, binding efficiency of primary binding sites of albumin", "setting": "[1]; [5]", "value": 5.9}, {"measurement": "B2/F, binding efficiency of secondary binding sites of albumin", "setting": "[1]; [5]", "value": 4.5}, {"measurement": "DP, discriminating parameter", "setting": "[1]; [5]", "value": 8.0}, {"measurement": "B1, relative concentration of probe bound on primary sites of albumin", "setting": "[1]; [6]", "value": 0.44}, {"measurement": "B2, relative concentration of probe bound on secondary sites of albumin", "setting": "[1]; [6]", "value": 0.33}, {"measurement": "F, relative concentration of unbound probe", "setting": "[1]; [6]", "value": 0.079}, {"measurement": "B1, relative concentration of probe bound on primary sites of albumin", "setting": "[1]; [7]", "value": 0.32}, {"measurement": "B1/F, binding efficiency of primary binding sites of albumin", "setting": "[1]; [7]", "value": 2.3}, {"measurement": "B2, relative concentration of probe bound on secondary sites of albumin", "setting": "[1]; [7]", "value": 0.23}, {"measurement": "B2/F, binding efficiency of secondary binding sites of albumin", "setting": "[1]; [7]", "value": 1.6}, {"measurement": "DP, discriminating parameter", "setting": "[1]; [7]", "value": 0.1}, {"measurement": "F, relative concentration of unbound probe", "setting": "[1]; [7]", "value": 0.047}]}, {"smiles": "CCCCCCCCCCCCCCCCCC(=O)O", "note": "[stearic acid]", "values": [{"measurement": "binding constant", "setting": "[2]", "value": "about 10^9 mol^−1"}]}]}
